Laboratory results: US20230172204A1 (BASF SE, priority 2020, published 2023)

How the values were obtained:
[1] = tested on: Phakopsora pachyrhizi (F129L); assay: Protective control of soybean rust on soybeans (PHAKPA P6); type: in vivo; conditions: soybean rust F129L; for % PHAKPA (F129L) Disease level P6 at 4 ppm: protective P6, 4 ppm; for % PHAKPA (F129L) Disease level P6 at 16 ppm: protective P6, 16 ppm
[2] = tested on: Phakopsora pachyrhizi (F129L); assay: Protective control of soybean rust on soybeans (PHAKPA P2); type: in vivo; conditions: soybean rust F129L; for % PHAKPA (F129L) Disease level P2 at 4 ppm: protective P2, 4 ppm; for % PHAKPA (F129L) Disease level P2 at 16 ppm: protective P2, 16 ppm

SMILES: C#Cc1cc(F)c(F)c(/C(C)=N/OCc2c(C)cccc2/C(=N\OC)C(=O)NC)c1 [compound 243]
- % PHAKPA (F129L) Disease level P6 at 4 ppm [1]: 37%
- % PHAKPA (F129L) Disease level P6 at 16 ppm [1]: 1%
- % PHAKPA (F129L) Disease level P2 at 4 ppm [2]: 4%
- % PHAKPA (F129L) Disease level P2 at 16 ppm [2]: 0%

SMILES: CNC(=O)/C(=N/OC)c1cccc(C)c1CO/N=C(\C)c1cc(Cl)ccc1C(F)(F)F [compound 245]
- % PHAKPA (F129L) Disease level P6 at 4 ppm [1]: 13%
- % PHAKPA (F129L) Disease level P6 at 16 ppm [1]: 2%
- % PHAKPA (F129L) Disease level P2 at 4 ppm [2]: 28%
- % PHAKPA (F129L) Disease level P2 at 16 ppm [2]: 8%

SMILES: CO/N=C(/C(=O)OC)c1cccc(C)c1CO/N=C(\C)c1cc(Cl)c(F)c(Cl)c1 [compound 246]
- % PHAKPA (F129L) Disease level P6 at 4 ppm [1]: 77%
- % PHAKPA (F129L) Disease level P6 at 16 ppm [1]: 7%
- % PHAKPA (F129L) Disease level P2 at 4 ppm [2]: 40%
- % PHAKPA (F129L) Disease level P2 at 16 ppm [2]: 15%

SMILES: CNC(=O)/C(=N/OC)c1cccc(C)c1CO/N=C(\C)c1cc(Cl)c(F)c(Cl)c1 [compound 247]
- % PHAKPA (F129L) Disease level P6 at 4 ppm [1]: 33%
- % PHAKPA (F129L) Disease level P6 at 16 ppm [1]: 8%
- % PHAKPA (F129L) Disease level P2 at 4 ppm [2]: 16%
- % PHAKPA (F129L) Disease level P2 at 16 ppm [2]: 2%

SMILES: CNC(=O)/C(=N/OC)c1cccc(C)c1CO/N=C(\C)c1cc(F)ccc1Br [compound 248]
- % PHAKPA (F129L) Disease level P6 at 4 ppm [1]: 30%
- % PHAKPA (F129L) Disease level P6 at 16 ppm [1]: 2%
- % PHAKPA (F129L) Disease level P2 at 4 ppm [2]: 33%
- % PHAKPA (F129L) Disease level P2 at 16 ppm [2]: 2%

SMILES: CO/N=C(/C(=O)OC)c1cccc(C)c1CO/N=C(\C)c1cc(F)ccc1C(F)(F)F [compound 249]
- % PHAKPA (F129L) Disease level P6 at 4 ppm [1]: 90%
- % PHAKPA (F129L) Disease level P6 at 16 ppm [1]: 43%
- % PHAKPA (F129L) Disease level P2 at 4 ppm [2]: 87%
- % PHAKPA (F129L) Disease level P2 at 16 ppm [2]: 37%

SMILES: CO/N=C(/C(=O)OC)c1cccc(C)c1CO/N=C(\CC(F)(F)F)c1cccc(C(F)(F)F)c1 [compound 250]
- % PHAKPA (F129L) Disease level P6 at 4 ppm [1]: 90%
- % PHAKPA (F129L) Disease level P6 at 16 ppm [1]: 80%
- % PHAKPA (F129L) Disease level P2 at 4 ppm [2]: 90%
- % PHAKPA (F129L) Disease level P2 at 16 ppm [2]: 90%

SMILES: CO/N=C(/C(=O)OC)c1cccc(C)c1CO/N=C(\C)c1cc(Cl)ccc1C(F)(F)F [compound 251]
- % PHAKPA (F129L) Disease level P6 at 4 ppm [1]: 80%
- % PHAKPA (F129L) Disease level P6 at 16 ppm [1]: 80%
- % PHAKPA (F129L) Disease level P2 at 4 ppm [2]: 80%
- % PHAKPA (F129L) Disease level P2 at 16 ppm [2]: 80%

SMILES: CNC(=O)/C(=N/OC)c1cccc(C)c1CO/N=C(\C)c1ccccc1OC(F)F [compound 252]
- % PHAKPA (F129L) Disease level P6 at 4 ppm [1]: 87%
- % PHAKPA (F129L) Disease level P6 at 16 ppm [1]: 32%
- % PHAKPA (F129L) Disease level P2 at 4 ppm [2]: 50%
- % PHAKPA (F129L) Disease level P2 at 16 ppm [2]: 3%

SMILES: CO/N=C(/C(=O)OC)c1cccc(C)c1CO/N=C(\C)c1ccccc1OC(F)F [compound 253]
- % PHAKPA (F129L) Disease level P6 at 4 ppm [1]: 100%
- % PHAKPA (F129L) Disease level P6 at 16 ppm [1]: 57%
- % PHAKPA (F129L) Disease level P2 at 4 ppm [2]: 100%
- % PHAKPA (F129L) Disease level P2 at 16 ppm [2]: 87%

SMILES: CO/N=C(/C(=O)OC)c1cccc(C)c1CO/N=C(\C)c1cc(F)ccc1Br [compound 254]
- % PHAKPA (F129L) Disease level P6 at 4 ppm [1]: 100%
- % PHAKPA (F129L) Disease level P6 at 16 ppm [1]: 100%
- % PHAKPA (F129L) Disease level P2 at 4 ppm [2]: 100%
- % PHAKPA (F129L) Disease level P2 at 16 ppm [2]: 77%

SMILES: CNC(=O)/C(=N/OC)c1cccc(C)c1CO/N=C(\CC(F)(F)F)c1cc(Cl)cc(Cl)c1 [compound 255]
- % PHAKPA (F129L) Disease level P6 at 4 ppm [1]: 100%
- % PHAKPA (F129L) Disease level P6 at 16 ppm [1]: 87%
- % PHAKPA (F129L) Disease level P2 at 4 ppm [2]: 97%
- % PHAKPA (F129L) Disease level P2 at 16 ppm [2]: 83%

SMILES: CO/N=C(/C(=O)OC)c1cccc(C)c1CO/N=C(\C)c1ccc(F)cc1Cl [compound 256]
- % PHAKPA (F129L) Disease level P6 at 4 ppm [1]: 70%
- % PHAKPA (F129L) Disease level P6 at 16 ppm [1]: 20%
- % PHAKPA (F129L) Disease level P2 at 4 ppm [2]: 50%
- % PHAKPA (F129L) Disease level P2 at 16 ppm [2]: 18%

SMILES: CO/N=C(/C(=O)OC)c1cccc(C)c1CO/N=C(\C)c1ccc(Br)cc1C(F)(F)F [compound 257]
- % PHAKPA (F129L) Disease level P6 at 4 ppm [1]: 100%
- % PHAKPA (F129L) Disease level P6 at 16 ppm [1]: 57%
- % PHAKPA (F129L) Disease level P2 at 4 ppm [2]: 93%
- % PHAKPA (F129L) Disease level P2 at 16 ppm [2]: 35%

SMILES: CNC(=O)/C(=N/OC)c1cccc(C)c1CO/N=C(\C)c1ccc(Br)cc1C(F)(F)F [compound 258]
- % PHAKPA (F129L) Disease level P6 at 4 ppm [1]: 73%
- % PHAKPA (F129L) Disease level P6 at 16 ppm [1]: 8%
- % PHAKPA (F129L) Disease level P2 at 4 ppm [2]: 32%
- % PHAKPA (F129L) Disease level P2 at 16 ppm [2]: 7%

SMILES: CO/N=C(/C(=O)OC)c1cccc(C)c1CO/N=C(\C)c1ccc(OC(F)(F)F)cc1C [compound 259]
- % PHAKPA (F129L) Disease level P6 at 4 ppm [1]: 93%
- % PHAKPA (F129L) Disease level P6 at 16 ppm [1]: 40%
- % PHAKPA (F129L) Disease level P2 at 4 ppm [2]: 80%
- % PHAKPA (F129L) Disease level P2 at 16 ppm [2]: 17%

SMILES: CNC(=O)/C(=N/OC)c1cccc(C)c1CO/N=C(\C)c1ccc(F)cc1C(F)(F)F [compound 260]
- % PHAKPA (F129L) Disease level P6 at 4 ppm [1]: 22%
- % PHAKPA (F129L) Disease level P6 at 16 ppm [1]: 0%
- % PHAKPA (F129L) Disease level P2 at 4 ppm [2]: 22%
- % PHAKPA (F129L) Disease level P2 at 16 ppm [2]: 0%

SMILES: CNC(=O)/C(=N/OC)c1cccc(C)c1CO/N=C(\C)c1ccc(OC(F)(F)F)cc1C [compound 261]
- % PHAKPA (F129L) Disease level P6 at 4 ppm [1]: 87%
- % PHAKPA (F129L) Disease level P6 at 16 ppm [1]: 32%
- % PHAKPA (F129L) Disease level P2 at 4 ppm [2]: 70%
- % PHAKPA (F129L) Disease level P2 at 16 ppm [2]: 9%
